Results taken from patent US20140154342A1, “SANDALWOOD OIL AND ITS USES RELATED TO SKIN DISORDERS” (SANTALIS PHARMACEUTICALS INC., priority 2011, published 2014).
Values after ≈ are worked out from the molar mass of the structure shown.

Assays:
MCP-1 = MCP-1 expression in conditioned media of LPS stimulated dermal fibroblasts by ELISA; assay type: cell-based; conditions: at 40-160 μg/ml
IL-6 = IL-6 expression in conditioned media of LPS stimulated dermal fibroblasts by ELISA; assay type: cell-based; conditions: Fibroblast, 24 h, read-out: IC50, suppression of IL-6 expression
Experimental: Dermal fibroblasts were treated with LPS+S1 or S2 at 5-40 μg/ml for 24 h. […] Ibuprofen suppressed IL-6 expression with IC50 of ˜40 μg/ml.

dermal fibroblasts = conditions: 24 h

## CC(C)Cc1ccc(C(C)C(=O)O)cc1 (stereo not drawn) [Ibuprofen]
MCP-1
  suppression of MCP-1 expression: ~10 fold
IL-6
  IC50: ~40 µg/mL (≈ 194 µM)
Dermal fibroblasts
  concentration with cytotoxic effect (no adverse effects / no cytotoxicity up to the value): > 160 µg/mL
